Data as given in patent US20250074976A1, “PHARMACEUTICAL COMPOSITION FOR TREATING PERIPHERAL NERVE INJURY” (NATIONAL UNIVERSITY CORPORATION HOKKAIDO UNIVERSITY, priority 2021, published 2025).

Columns and labels:
Format in all cases: in vivo, Lewis rats
[1] = system: sciatic nerve crush injury; assay: Collagen sheet covering 15 mm to 25 mm distal to injury site, evaluation 12 hours after crush injury (NETs, macrophages); settings: n=3; for NETs in the epineurium (CitH3 positive area) / macrophages accumulated in the nerve parenchyma: 20 mm distal
Description: (§1) Anesthetized Lewis rats (males, 12-16 weeks old) or C57BL/6 mice (males, 8-10 weeks old) were placed in the prone position and a longitudinal skin incision was made from the left buttock to the distal left thigh to expose the entire sciatic nerve. Crush injuries were created with micro mosquito forceps (Fine Science Tools, No. 13010-12). An 8-0 Nylon thread was applied to the epineurium at the crush injury for marking, and the incision was closed.
(§2) After a predetermined time had elapsed from the creation of the crush injury, the right atrial appendage of the animals was incised under anesthesia to release the blood, and a PBS solution was poured into the left heart to remove the blood. After transcardial perfusion and fixation with 4% paraformaldehyde-added PBS, the sciatic nerve was collected.
(§3) Sciatic nerves collected from animals were fixed in 4% PFA at 4° C. overnight and then transferred to 30% Sucrose/PB solution and allowed to stand for 24 hours or longer. Longitudinal sciatic nerve sections of 10 μm thickness, or in the case of mice, transverse sections at predetermined locations, were prepared using a cryostat. The sections were blocked in TBS (pH 8.4) containing 5% Normal horse serum (Thermo Fisher Scientific, Waltham, MA) and 0.25% Triton X-100 (Sigma-Aldrich, St. Louis, MO) for 1 hour, and then immersed in TBS containing primary antibody at 4° C. overnight and in TBS containing secondary antibody at room temperature for 1 hour for staining. After washing with TBS, counterstaining was performed with DAPI. After staining, tissues were observed using a fluorescence microscope BZ-X710 (KEYENCE). Image analysis was performed using Image J (Schneider et al., 2012).
Crush injuries were created in the sciatic nerve of rats. Ten hours after injury creation, the sciatic nerves from 15 mm to 25 mm distal to the injury site were wrapped with the collagen-based artificial skin PELNAC (registered trademark) (Smith & Nephew; hereafter also referred to as sheets or collagen sheets) impregnated with either 50 μl of PBS containing 0.3 mg of the PAD4 inhibitor Cl-amidine (Cayman CHEMICAL #10599), 50 μl of PBS containing 200 U of DNase I (Nippon Gene #314-08071), or 50 μl of PBS (control). The sheets were suture-fixed with 8-0 nylon and placed for 2 hours (n=3 in each group). Twelve hours after injury creation, the sciatic nerves were collected, their longitudinal sections at 20 mm distal to the injury site were prepared and immunohistochemical staining for CitH3, Ly-6G, and CD68 was performed. The epineural area was observed and the percentage of area stained for CitH3 in the total area of the field of view was calculated. The number of macrophages per unit area of the nerve parenchyma was quantified.
Crush injuries were created in the sciatic nerve of rats. Ten hours after injury creation, the sciatic nerves from 15 mm to 25 mm distal to the injury site were wrapped with collagen sheets impregnated with either 50 μl of 1% DMSO containing 500 μg of the MIF inhibitor iso-1 (Abcam, Cat ab142140), or 50 μl of 1% DMSO. The sheets were suture-fixed with 8-0 nylon and placed for 2 hours (n=3 in each group). Twelve hours after injury creation, the sciatic nerves were collected, their longitudinal sections were prepared, and immunohistochemical staining for CitH3, Ly-6G, and CD68 was performed. The epineural area was observed and the percentage of area stained for CitH3 in the total area of the field of view was calculated. The number of macrophages per unit area of the nerve parenchyma was quantified.
Crush injuries were created in the sciatic nerve of rats. Ten hours after injury creation, the sciatic nerves from 15 mm to 25 mm distal to the injury site were wrapped with collagen sheets impregnated with either 50 μl of PBS containing 500 μg of the CXCR4 inhibitor AMD3100 (Abcam #10599), or 50 μl of PBS. The sheets were suture-fixed with 8-0 nylon and placed for 2 hours (n=3 in each group).

[2] = system: sciatic nerve crush injury; assay: Collagen sheet covering 5 mm to 25 mm distal to injury site, evaluation 7 days after crush injury (macrophages, axonal regeneration); settings: placed 2 hours, 7 days after injury, vs control sheet
Description: as §1, §2, §3
(§4) In β3 tubulin-immunostained images of longitudinal sciatic nerve sections, vertical lines were set at 5 mm intervals in the direction distal to the injury site, and the number of axons crossing each line was divided by the length of the line to calculate axon density. The axonal regeneration percentage was calculated by dividing the axon density at each location by the axon density at uninjured site 1.5 mm proximal to the injury site.
(§5) Crush injuries were created in the sciatic nerve of rats.
Crush injuries were created in the sciatic nerve of rats. […] The sheets were removed 12 hours after injury creation and the incisions were closed after washing.
as §5

[3] = system: sciatic nerve crush injury; assay: Collagen sheet covering 5 mm to 15 mm distal to injury site, evaluation 7 days after crush injury (axonal regeneration); settings: sheet with 500 μg inhibitor in 50 μl 1% DMSO, placed 2 hours; 7 days after injury; vs control sheet; n=1; FIG. 37
Description: as §1, with “Crush injuries were created with micro mosquito forceps (Fine Science Tools, No. 13010-12).” left out
as §2
as §3, with “(KEYENCE).” for “(KEYENCE). Image analysis was performed using Image J (Schneider et al., 2012).”
as §4
Crush injuries were created in the sciatic nerve of rats. […] […] Seven days after injury creation, the sciatic nerves were collected, and immunohistochemical staining of their longitudinal sections was performed to calculate the axonal regeneration percentage.

SMILES: O=C(O)CC1CC(c2ccc(O)cc2)=NO1 (racemic) [iso-1, (S,R)-3-(4-Hydroxyphenyl)-4,5-dihydro-5-isoxazole acetic acid]
- NETs in the epineurium at 20 mm distal to the injury site (CitH3 positive area) ([1]; sheet with 500 μg iso-1 in 50 μl 1% DMSO, placed 2 hours, 12 hours after injury, FIG. 32): only a small amount of NETs were detected
- macrophage accumulation at 5 mm distal to the injury site (no sheet treatment there) ([1]; sheet with 500 μg iso-1 in 50 μl 1% DMSO, placed 2 hours, 12 hours after injury, vs control sheet, FIG. 30): no difference in macrophage accumulation
- macrophages accumulated in the nerve parenchyma at 20 mm distal to the injury site (sheet-treated) ([1]; sheet with 500 μg iso-1 in 50 μl 1% DMSO, placed 2 hours, 12 hours after injury, vs control sheet, FIG. 31): more macrophages accumulated in the nerve parenchyma
- axonal regeneration percentage ([2]; sheet with 1000 μg iso-1 in 100 μl 1% DMSO, over almost the entire evaluated regions, n=3, FIG. 35): higher axonal regeneration percentage
- accumulation of macrophages in the nerve parenchyma (CD68; M2 macrophages CD163) ([2]; sheet with 1000 μg iso-1 in 100 μl 1% DMSO, over the entire evaluated regions, n=3, FIG. 33, 34): greater accumulation of macrophages in the nerve parenchyma
- axonal regeneration percentage [3]: higher axonal regeneration percentage
- longest axon length [3]: greater longest axon length

SMILES: c1cc(CN2CCCNCCNCCCNCC2)ccc1CN1CCCNCCNCCCNCC1 [AMD3100, 1,4-Bis[(1,4,8,11-tetraazacyclotetradecan-1-yl)methyl]benzene]
- NETs in the epineurium (CitH3 positive area) ([1]; sheet with 500 μg AMD3100 in 50 μl PBS, placed 2 hours, 12 hours after injury, FIG. 39): only a small amount of NETs were detected
- macrophages accumulated in the nerve parenchyma ([1]; sheet with 500 μg AMD3100 in 50 μl PBS, placed 2 hours, 12 hours after injury, vs control sheet, FIG. 40): more macrophages accumulated in the nerve parenchyma
- macrophages accumulated in the nerve parenchyma ([2]; sheet with 1 mg AMD3100 in 100 μl PBS, over almost the entire evaluated regions, n=1, FIG. 42): more macrophages accumulated in the nerve parenchyma
- axonal regeneration percentage ([2]; sheet with 1 mg AMD3100 in 100 μl PBS, n=1, FIG. 41): higher axonal regeneration percentage

SMILES: O=C(CC1CC(c2ccc(F)cc2F)=NO1)N1CCOCC1 (stereo not drawn) [CPSI-1306]
- axonal regeneration percentage [3]: higher axonal regeneration percentage
- longest axon length [3]: greater longest axon length

SMILES: N=C(CCl)NCCC[C@H](NC(=O)c1ccccc1)C(N)=O.O=C(O)C(F)(F)F [Cl-amidine, N^2-Benzoyl-N^5-(1-imino-2-chloroethyl)-L-ornithinamide trifluoroacetic acid]
- NETs in the epineurium (CitH3 positive area) ([1]; sheet with 0.3 mg Cl-amidine or 200 U DNase I in 50 μl PBS, placed 2 hours from 10 hours after injury, 12 hours, vs control sheet (large amount), FIG. 25): only a small amount of NETs were detected
- macrophages accumulated in the nerve parenchyma ([1]; sheet with 0.3 mg Cl-amidine or 200 U DNase I, placed 2 hours, 12 hours, CD68, vs control sheet, FIG. 26): more macrophages accumulated in the nerve parenchyma
